Measured values from BindingDB's records for doi:10.1021/acs.jnatprod.0c00251 (University of Halle-Wittenberg, 2020).
Numbered stars: 1 amine (or outer) side, 2 acyl side, 3 side chain; on linkers, the order of the positions; unused ones are H or OH. Bridge positions count the residues as written; N and C are the ends. Square brackets hold non-standard residues; d marks the D form. Peptide text beside a SMILES is read from it. * marks the point of attachment. Adda = CO[C@@H](Cc1ccccc1)[C@@H](C)/C=C(C)/C=C/[C@H](N[*:1])[C@H](C)C(=O)[*:2]; dAsp(3S-Me) = C[C@H](C(=O)[*:3])[C@@H](N[*:1])C(=O)[*:2]; d(γGlu) = O=C(O)[C@@H](CCC(=O)[*:2])N[*:1]; NMeDha = C=C(NC)C(=O)O; Propargyl = C#CC*

Key:
[1] = Substrate activity at OATP1B1 (unknown origin) expressed in HEK293 cells assessed as cytotoxicity incubated for 48 hrs by sulforhodamine B assay
[2] = Substrate activity at OATP1B3 (unknown origin) expressed in HEK293 cells assessed as cytotoxicity incubated for 48 hrs by sulforhodamine B assay

Structure (SMILES): C=C1C(=O)N[C@H](C)C(=O)N[C@@H](Cc2ccc(OCc3cn(-c4cc5ccc(O)cc5oc4=O)nn3)cc2)C(=O)N[C@@H](C(=O)O)[C@H](C)C(=O)N[C@@H](CCCNC(=N)N)C(=O)N[C@@H](/C=C/C(C)=C/[C@H](C)[C@H](Cc2ccccc2)OC)[C@H](C)C(=O)N[C@@H](C(=O)O)CCC(=O)N1C
- EC50 [1]: 1.7 nM
- EC50 [2]: 1.4 nM

Structure (SMILES): C#CCOc1ccc(C[C@@H]2NC(=O)[C@@H](C)NC(=O)C(=C)N(C)C(=O)CC[C@H](C(=O)O)NC(=O)[C@@H](C)[C@H](/C=C/C(C)=C/[C@H](C)[C@H](Cc3ccccc3)OC)NC(=O)[C@H](CCCNC(=N)N)NC(=O)[C@@H](C)[C@H](C(=O)O)NC2=O)cc1 (R[Adda][d(γGlu)][NMeDha][dA]Y(Propargyl)[dAsp(3S-Me)]-OH; lactam N-7)
- EC50 [1]: 1.1 nM
- EC50 [2]: 2.4 nM

Structure (SMILES): C=C1C(=O)N[C@H](C)C(=O)N[C@@H](Cc2ccc(O)cc2)C(=O)N[C@@H](C(=O)O)[C@H](C)C(=O)N[C@@H](CCCNC(=N)N)C(=O)N[C@@H](/C=C/C(C)=C/[C@H](C)[C@H](Cc2ccccc2)OC)[C@H](C)C(=O)N[C@@H](C(=O)O)CCC(=O)N1C (R[Adda][d(γGlu)][NMeDha][dA]Y[dAsp(3S-Me)]-OH; lactam N-7)
- EC50 [1]: 4.5 nM
- EC50 [2]: 3 nM
